{"source": "patent US20070111204A1", "about": "“Methods for detecting nucleic acid variations” (priority 2003, published 2007)", "origin": "cited, not measured here", "test_system": "CGRP", "details": "marmoset, electrical stimulation of the trigeminal ganglion (Doods et al. 2000)"}
{"smiles": "NCCCC[C@H](NC(=O)[C@@H](Cc1cc(Br)c(O)c(Br)c1)NC(=O)N1CCC(N2Cc3ccccc3NC2=O)CC1)C(=O)N1CCN(c2ccncc2)CC1", "note": "[BIBN4096BS]", "values": [{"measurement": "effect on increase of facial blood flow", "result": "blocked"}]}
